Activity calls are given as the source filed them. The calls are words filed in the database; no cut-off is given here.
Assays:
[1] = test system: Halomonas aquamarina; test: Antibacterial activity against Alcaligenes aquamarinus at 100 ug/disk after 24 hrs by paper disk diffusion assay; format: functional, organism-based; conditions: Vreelandella aquamarina
[2] = test system: Escherichia coli; test: Antibacterial activity against Escherichia coli at 100 ug/disk after 24 hrs by paper disk diffusion assay; format: functional, organism-based
[3] = Toxicity against Artemia salina nauplii after 24 hrs; format: organism-based; conditions: in vivo

SMILES	Activity [1]	Activity [2]	LC50 at 24 h [3] [µM]
C#C/C=C\C[C@@H]1O[C@H](/C=C/C)C/C=C\C[C@@H]1Cl	inactive	inactive	467
CC1(C)[C@H](Br)C[C@H](O)[C@]1(C)[C@@]1(O)CC[C@]2(C)[C@@H](Br)CC[C@@](C)(O)[C@@]2(O)C1 [NEOIRIETETRAOL]	Active	Active	40.1
